Values quoted from earlier work as cited in patent US8333959B2, “Ex-vivo application of solid microparticulate therapeutic agents” (Baxter International Inc., priority 2004, dated 2012).

Tested on: HIV-infected macrophages

## CC(C)(C)NC(=O)[C@@H]1C[C@@H]2CCCC[C@@H]2CN1C[C@@H](O)[C@H](Cc1ccccc1)NC(=O)[C@H](CC(N)=O)NC(=O)c1ccc2ccccc2n1 [saquinavir]
HIV-infected macrophages, in vitro, solution vs nanoparticulate formulation
  antiviral activity in HIV-infected macrophages: little antiviral activity
Concentration of 100 nM, chronically HIV-infected macrophages
  antiviral activity in chronically HIV-infected macrophages: completely inactive
